Earlier results in patent US20220168408A1, “MULTI-VALENT IMMUNOTHERAPY COMPOSITION AND METHODS OF USE FOR TREATING WT1-POSITIVE CANCERS” (SLSG LIMITED LLC, priority 2019, published 2022).

Test system: CD4+ and CD8+ responses
Conditions: according to data from preclinical and phase 1 studies

## SGQAYMFPNAPYLPSCLES (Mutated Homo sapiens) [WT1-122A1 long]
  stimulation of CD4+ and CD8+ responses: stimulate both CD4+ and CD8+ responses
